The values below come from US12208093B2 (THE JOHNS HOPKINS UNIVERSITY, priority 2016, dated 2025).

The subject of one experiment is MDM2-IE2 interaction. The experiment in a line: Co-immunoprecipitation of MDM2 and IE2 in transfected HEK293 cells. In kind it is cell-based. As to conditions: HEK293 cells transfected with IE1/2; emetine 75 nM or GCV 5 μM, 4 h. The protocol: Transient transfections. HEK-293 cells seeded into 10 cm petri dishes were transfected with HCMV plasmid encoding IE1 and IE2 (pRL45) plasmid, 1 μg/dish, using Lipofectamine 2000 in serum free medium. After 6 h, 10% FBS containing media was added along with 10 μM of MG132. […] Cells were then harvested to prepare lysates for IP.
Co-immunoprecipitation (IP) and immunoblotting. Non-infected, infected or emetine-treated HFFs were treated with MG132 (10 μM) for 12 h. Cells were harvested after 24 hpi and lysed with IP buffer containing 150 mM NaCl, 50 mM Tris pH 7.5, 2 mM EDTA, 0.5% TritonX-100 and 0.5% NP-40-40. 1 mg of lysate was precleared with bead slurry for 30 min. The precleared lysates were incubated with anti-MDM2 (2 μg) antibody overnight. The antibody complexes were isolated using protein A/G beads (Santa Cruz), washed three times with 50% IP buffer. The immunoprecipitate—protein A/G beads were boiled in SDS sample buffer, and the supernatant was analyzed on SDS-PAGE gels after immunoblotting as described previously. […] Reverse IPs were performed by pulling down the precleared lysates with either anti-p53 antibody or anti-RPS14 antibody and detected with MDM2. […] In other experiments, transfected or treated HEK293 cell lysates were pulled-down with anti-IE2 antibody and detected with anti-MDM2 antibody and vice-versa for reverse IP.

Another experiment concerns malaria. The note with it: 17 patients; 40 mg IM x 6 daily doses; cited from earlier work.

Structures can show the parent of a compound that is named as a salt.

In the case of `CC[C@H]1CN2CCc3cc(OC)c(OC)cc3[C@@H]2C[C@@H]1C[C@H]1NCCc2cc(OC)c(OC)cc21` [emetine, emetine dihydrochloride hydrate], the “interaction of MDM2 and IE2” value with MDM2-IE2 interaction is “significantly decreased”. In addition, in the experiment on malaria, the treatment of malaria entry was “successful treatment”.
